Experimental data: US10738007B2, “Amide compounds as kinase inhibitors, compositions and methods of treatment” (TRANSLATIONAL DRUG DEVELOPMENT, LLC, priority 2016, dated 2020)

How the values were obtained:
MV411 cell line = assay: Cell viability assay ([…]-GLO), MV411; assay type: cell-based; conditions: for IC50: MV411 (ITD-FLT3+), 72 hours treatment; for FLT3-ITD+ Selectivity (K562/MV411): ratio K562/MV411
ROCK2 = ROCK2 (Homo sapiens (Human), UniProt O75116); assay: ROCK2 kinase inhibition assay (peptide phosphorylation, LABCHIP 3000); assay type: biochemical; conditions: 7 μM ATP, 2.5 nM ROCK2, 3 hours at 25° C.
Procedure: The peptide is phosphorylated by the protein kinase ROCK1 or ROCK2. The ROCK1 or ROCK2 enzyme, substrate, and cofactors (ATP and Mg^2+) are combined in a well of a microtiter plate and incubated for 3 hours at 25° C. in the presence or absence of an inhibitor compound. At the end of the incubation, the reaction is quenched by the addition of an EDTA-containing buffer. The substrate and product are separated and quantified electrophoretically using the microfluidic-based LABCHIP® 3000 Drug Discovery System from Caliper Life Sciences (Hopkinton, Mass.).
The components of the assay mixture are:
10 μM Sodium Orthovanadate
10 LM Beta-Glycerophosphate
5 μM ATP (for ROCK1) or 7 μM ATP (for ROCK2)
3 nM ROCK1 or 2.5 nM ROCK2 enzyme
Substrate and product peptides present in each sample are separated electrophoretically using the LABCHIP® 3000 capillary electrophoresis instrument. […] Change in the relative fluorescence intensity of the substrate and product peaks is the parameter measured reflecting enzyme activity. Capillary electrophoregramms (RDA acquisition files) are analyzed using HTS Well Analyzer software (Caliper Life Sciences, Hopkinton, Mass.). The kinase activity in each sample is determined as the product to sum ratio (PSR): P/(S+P), where P is the peak height of the product peptide and S is the peak height of the substrate peptide. For each compound, enzyme activity is measured at various concentrations (12 concentrations of compound spaced by 3× dilution intervals). Negative control samples (0%-inhibition in the absence of inhibitor) and positive control samples (100%-inhibition in the presence of 20 mM EDTA) are assembled in replicates of four and are used to calculate %-inhibition values for each compound at each concentration. Percent inhibition (Pinh) is determined using the following equation: Pinh=(PSRO %−PSRinh)/(PSRO %−PSR100%)*100
where PSRinh is the product sum ratio in the presence of inhibitor, PSRO % is the average product sum ratio in the absence of inhibitor, and PSR100% is the average product sum ratio in 100%-inhibition control samples. The IC50 values of inhibitors are determined by fitting the inhibition curves (Pinh versus inhibitor concentration) by the 4-parameter sigmoidal dose-response model using XLfit 4 software (IBDS).

K562 cell line = assay: Cell viability assay ([…]-GLO), K562; assay type: cell-based; conditions: K562 (does not express ITD-FLT3), 72 hours treatment
Procedure: Cell viability in the presence of varying concentrations of the above listed compounds at different time points was used to assess cytotoxicity and the effect of the compounds on cell proliferation.
Cell viability was measured by the […]-GlO® cell viability assay from Promega (Madison, Wis.). The […]-GlO Luminescent Cell Viability Assay is a homogeneous method to determine the number of viable cells in culture based on quantitation of the ATP present, which signals the presence of metabolically active cells. Following treatment, […]-GlO® is added to treatment wells and incubated at 37° C. Luminescence values were measured at using a Molecular Devices Spectramax microplate reader.
Cells were grown to 70% confluency, trypsinized, counted, and seeded in 96 well flat-bottom plates at a final concentration of 2.5×10^3-5×10^3 cells/well (Day 0). Cells were allowed to incubate in growth media for 24 hours. Treatment with the test agents or standard agents began on Day 1 and continued for 72 hours. At the 72-hour time point, treatment containing media was removed. Viable cell numbers were quantified by the […]-GLO® cell viability assay as described above. Results from these studies were used to calculate an IC50 value (concentration of drug that inhibits cell growth by 50 percent of control) for each compound.
For single agent and combination studies, data from each experiment was collected and expressed as % Cell Growth using the following calculation: % Cell Growth=(ftest/fvehicle)×100
Where ftest is the luminescence of the tested sample, and fvehicle is the luminescence of the vehicle in which the drug is dissolved. Dose response graphs and IC50 values were generated using Prism 6 software (GraphPad) using the following equation: Y=(Top−Bottom)/(1+10^((logIC50-X)−HillSlope))
Where X is the logarithm of the concentration and Y is the response. Y starts at the Bottom and goes to the Top with a sigmoid shape.
The experiments also evaluated the selectivity of the compounds for inhibiting growth of cancer cells carrying a mutation in the Flt3 gene. The MV411 cell line expresses the mutant allele of Flt3 with internal tandem duplications (ITD) of the gene. See Quentmeier et al., “FLT3 Mutations in Acute Myeloid Leukemia Cell Lines,” Leukemia 17(1), 2003, 120-124. […] See Grafone et al., “Monitoring of FLT3 Phosphorylation Status and Its Response to Drugs By Flow Cytometry in AML Blast Cells,” Hematol Oncol. 26(3), 2008, 159-166.

Sequence of ROCK2 (O75116 whole entry, species assumed): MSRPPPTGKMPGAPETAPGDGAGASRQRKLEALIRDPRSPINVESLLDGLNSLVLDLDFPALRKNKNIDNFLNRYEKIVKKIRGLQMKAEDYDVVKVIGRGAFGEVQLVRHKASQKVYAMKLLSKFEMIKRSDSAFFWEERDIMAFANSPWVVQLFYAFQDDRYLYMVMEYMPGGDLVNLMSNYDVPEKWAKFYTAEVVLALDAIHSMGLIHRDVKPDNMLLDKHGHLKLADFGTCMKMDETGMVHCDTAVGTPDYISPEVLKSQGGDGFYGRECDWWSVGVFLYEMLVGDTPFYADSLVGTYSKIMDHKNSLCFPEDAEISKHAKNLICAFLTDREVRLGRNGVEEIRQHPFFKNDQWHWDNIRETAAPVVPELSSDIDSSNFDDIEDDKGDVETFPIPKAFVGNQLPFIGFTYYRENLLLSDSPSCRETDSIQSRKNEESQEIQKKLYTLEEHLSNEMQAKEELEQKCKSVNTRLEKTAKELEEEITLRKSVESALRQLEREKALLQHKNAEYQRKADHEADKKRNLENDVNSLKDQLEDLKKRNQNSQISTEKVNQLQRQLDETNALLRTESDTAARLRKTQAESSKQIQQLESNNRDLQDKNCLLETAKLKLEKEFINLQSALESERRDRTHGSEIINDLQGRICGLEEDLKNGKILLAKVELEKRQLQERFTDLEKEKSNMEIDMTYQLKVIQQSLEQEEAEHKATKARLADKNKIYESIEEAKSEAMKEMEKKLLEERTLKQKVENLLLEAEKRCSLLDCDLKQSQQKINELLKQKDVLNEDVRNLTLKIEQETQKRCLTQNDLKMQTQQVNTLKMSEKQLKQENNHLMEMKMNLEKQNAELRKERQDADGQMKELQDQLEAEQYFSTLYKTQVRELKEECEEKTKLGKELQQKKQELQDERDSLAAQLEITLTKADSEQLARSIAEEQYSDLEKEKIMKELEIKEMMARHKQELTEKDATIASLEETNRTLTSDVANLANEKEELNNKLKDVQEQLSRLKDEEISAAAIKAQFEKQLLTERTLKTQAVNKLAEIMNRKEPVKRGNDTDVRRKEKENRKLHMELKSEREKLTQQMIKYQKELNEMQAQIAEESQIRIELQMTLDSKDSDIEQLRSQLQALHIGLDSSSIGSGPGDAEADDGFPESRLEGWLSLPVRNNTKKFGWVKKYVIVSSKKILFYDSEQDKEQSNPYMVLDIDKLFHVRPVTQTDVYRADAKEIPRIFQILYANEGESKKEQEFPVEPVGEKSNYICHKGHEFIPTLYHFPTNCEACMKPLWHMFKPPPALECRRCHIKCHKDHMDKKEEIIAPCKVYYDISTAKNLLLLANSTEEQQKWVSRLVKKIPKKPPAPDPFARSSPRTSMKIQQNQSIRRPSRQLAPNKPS

SMILES	IC50 (MV411 cell line; Homo sapiens, MV4-11)	FLT3-ITD+ Selectivity (K562/MV411) (MV411 cell line)	IC50 (ROCK2)	IC50 (K562 cell line; Homo sapiens)	IC50 (MV411 cell line)	IC50 (K562 cell line)
CC(C)N1CCC(NC(=O)c2cccc([C@@H](CO)NC(=O)c3ccc(-c4ccncc4)cc3)c2)CC1 [Compound 55]	120 nM	>842	0.47 nM	> 100000 nM	–	–
CC(C)N1CCC(CNC(=O)c2cccc([C@@H](CO)NC(=O)c3ccc(-c4ccncc4)cc3)c2)CC1 [Compound 56]	90 nM	>1122	0.31 nM	> 100000 nM	–	–
CN1CCC(C)(CNC(=O)c2cccc([C@@H](CO)NC(=O)c3ccc(-c4ccncc4)cc3)c2)CC1 [Compound 57]	90 nM	>1122	0.63 nM	> 100000 nM	–	–
O=C(NCC1CCN(C2CC2)CC1)c1cccc([C@@H](CO)NC(=O)c2ccc(-c3ccncc3)cc2)c1 [Compound 58]	40 nM	>2525	0.44 nM	> 100000 nM	–	–
CCN1CCC(CNC(=O)c2cccc([C@@H](CO)NC(=O)c3ccc(-c4ccncc4)cc3)c2)CC1 [Compound 59]	280 nM	>361	0.46 nM	> 100000 nM	–	–
CC(C)N1CCC(CNC(=O)c2cccc([C@@H](C)NC(=O)c3ccc(-c4ccncc4)cc3)c2)CC1 [Compound 60]	40 nM	>2525	0.53 nM	> 100000 nM	–	–
O=C(NC1CCCC1)c1cccc([C@@H](CO)NC(=O)c2cc(-c3ccncc3)n[nH]2)c1 [Compound 61]	2500 nM	>40	2.12 nM	> 100000 nM	–	–
CC(C)NC(=O)c1cccc([C@@H](CO)NC(=O)c2ccc(-c3ccncc3)cc2)c1 [Compound 62]	1030 nM	63	2.85 nM	65000 nM	–	–
COc1cccc(CNC(=O)c2cccc([C@@H](CO)NC(=O)c3ccc(-c4ccncc4)cc3)c2)c1 [Compound 65]	70 nM	393	0.6 nM	28000 nM	–	–
O=C(NCC1CCC1)c1cccc([C@@H](CO)NC(=O)c2ccc(-c3ccncc3)cc2)c1 [Compound 66]	130 nM	279	0.6 nM	36000 nM	–	–
COCC1(NC(=O)c2cccc([C@@H](CO)NC(=O)c3ccc(-c4ccncc4)cc3)c2)CCCC1 [Compound 67]	2670 nM	15	9.1 nM	41000 nM	–	–
O=C(NCC1(O)CCCCC1)c1cccc([C@@H](CO)NC(=O)c2ccc(-c3ccncc3)cc2)c1 [Compound 69]	150 nM	350	0.7 nM	52000 nM	–	–
CC1(NC(=O)c2cccc([C@@H](CO)NC(=O)c3ccc(-c4ccncc4)cc3)c2)CCC1 [Compound 71]	910 nM	37	9 nM	34000 nM	–	–
CN(C)C1(CNC(=O)c2cccc([C@@H](CO)NC(=O)c3ccc(-c4ccncc4)cc3)c2)CCCC1 [Compound 72]	100 nM	891	0.5 nM	89000 nM	–	–
COC1(CNC(=O)c2cccc([C@@H](CO)NC(=O)c3ccc(-c4ccncc4)cc3)c2)CCC1 [Compound 73]	80 nM	337	0.6 nM	27000 nM	–	–
CN(C)CC1(NC(=O)c2cccc([C@@H](CO)NC(=O)c3ccc(-c4ccncc4)cc3)c2)CCCC1 [Compound 74]	9120 nM	8	27.1 nM	74000 nM	–	–

SMILES	IC50 (MV411 cell line; Homo sapiens, MV4-11)	FLT3-ITD+ Selectivity (K562/MV411) (MV411 cell line)	IC50 (ROCK2)	IC50 (K562 cell line; Homo sapiens)	IC50 (MV411 cell line)	IC50 (K562 cell line)
O=C(NCc1cccc(F)c1)c1cccc([C@@H](CO)NC(=O)c2ccc(-c3ccncc3)cc2)c1 [Compound 75]	160 nM	207	0.5 nM	33000 nM	–	–
O=C(NCC1CC1)c1cccc([C@@H](CO)NC(=O)c2ccc(-c3ccncc3)cc2)c1 [Compound 84]	270 nM	123	1.2 nM	33000 nM	–	–
COc1ccc(CNC(=O)c2cccc([C@@H](CO)NC(=O)c3ccc(-c4ccncc4)cc3)c2)cc1 [Compound 85]	90 nM	368	0.6 nM	33000 nM	–	–
O=C(NC1CCCC1)c1cccc([C@@H](CO)NC(=O)c2ccc(-c3ccncc3)cc2F)c1 [Compound 86]	1700 nM	>58	2.7 nM	> 100000 nM	–	–
COC1(CNC(=O)c2cccc([C@@H](CO)NC(=O)c3ccc(-c4ccncc4)cc3)c2)CCCC1 [Compound 87]	270 nM	85	0.8 nM	23000 nM	–	–
Cc1cc(-c2ccncc2)ccc1C(=O)N[C@H](CO)c1cccc(C(=O)NC2CCCC2)c1 [Compound 88]	8500 nM	>12	7.5 nM	> 100000 nM	–	–
O=C(NCC1CCCC1)c1cccc([C@@H](CO)NC(=O)c2ccc(-c3ccncc3)cc2)c1 [Compound 89]	280 nM	236	0.72 nM	66000 nM	–	–
COC(=O)N1CCC(NC(=O)c2cccc([C@@H](CO)NC(=O)c3ccc(-c4ccncc4)cc3)c2)CC1 [Compound 90]	–	>5050	0.64 nM	–	20 nM	> 100000 nM
COC(=O)N1CCC(CNC(=O)c2cccc([C@@H](CO)NC(=O)c3ccc(-c4ccncc4)cc3)c2)CC1 [Compound 91]	–	>4040	0.57 nM	–	30 nM	> 100000 nM
O=C(NC1CCN(CC(F)(F)F)CC1)c1cccc([C@@H](CO)NC(=O)c2ccc(-c3ccncc3)cc2)c1 [Compound 92]	–	>3061	0.68 nM	–	30 nM	> 100000 nM
COc1ccc(NC(=O)c2cccc([C@@H](CO)NC(=O)c3ccc(-c4ccncc4)cc3)c2)cn1 [Compound 93]	90 nM	935	0.51 nM	85000 nM	–	–
O=C(NC1CCCC1)c1cccc([C@@H](CO)NC(=O)c2ccc(-c3cn[nH]c3)cc2F)c1 [Compound 95]	890 nM	86	2.34 nM	76000 nM	–	–
Cc1cc(-c2cn[nH]c2)ccc1C(=O)N[C@H](CO)c1cccc(C(=O)NC2CCCC2)c1 [Compound 96]	710 nM	142	53.1 nM	101000 nM	–	–
C[C@@H](NC(=O)c1ccc(-c2cn[nH]c2)cc1)c1cccc(C(=O)NC2CCCC2)c1 [Compound 97]	110 nM	154	0.74 nM	17000 nM	–	–
CCOc1cc(-c2cn[nH]c2)ccc1C(=O)N[C@H](CO)c1cccc(C(=O)NC2CCCC2)c1 [Compound 101]	80 nM	194	0.25 nM	15000 nM	–	–
COc1cc(-c2ccncc2)ccc1C(=O)N[C@H](CO)c1cccc(C(=O)NC2CCCC2)c1 [Compound 110]	410 nM	246	2.5 nM	> 100000 nM	–	–
